Columns and labels:
[1] = In vitro inhibitory activity against gamma-aminobutyric acid (GABA) uptake; format: functional
[2] = target: T1, Muscarinic acetylcholine receptor M2 (Homo sapiens) (UniProt P08172); assay: Compound was evaluated for binding affinity by displacement of [3H]NMS from muscarinic M2 receptor at concentration 100 nM.
T1 sequence (whole entry): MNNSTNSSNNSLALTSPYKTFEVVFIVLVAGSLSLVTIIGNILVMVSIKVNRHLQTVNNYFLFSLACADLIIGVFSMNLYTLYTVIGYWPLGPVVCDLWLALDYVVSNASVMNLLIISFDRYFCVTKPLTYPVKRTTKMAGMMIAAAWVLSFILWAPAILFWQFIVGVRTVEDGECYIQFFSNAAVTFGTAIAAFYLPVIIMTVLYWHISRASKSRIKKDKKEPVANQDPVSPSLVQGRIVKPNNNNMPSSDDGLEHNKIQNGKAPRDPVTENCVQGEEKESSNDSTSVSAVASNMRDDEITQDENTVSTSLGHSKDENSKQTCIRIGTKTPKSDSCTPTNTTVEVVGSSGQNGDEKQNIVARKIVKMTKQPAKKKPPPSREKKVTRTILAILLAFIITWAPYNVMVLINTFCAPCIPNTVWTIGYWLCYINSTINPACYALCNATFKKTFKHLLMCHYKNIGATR

[3] = target: T2, Muscarinic acetylcholine receptor M1 (Homo sapiens) (UniProt P11229); assay: Compound was evaluated for binding affinity by displacement of [3H]pirenzepine from muscarinic M1 receptor at concentration 100 nM.
T2 sequence (whole entry): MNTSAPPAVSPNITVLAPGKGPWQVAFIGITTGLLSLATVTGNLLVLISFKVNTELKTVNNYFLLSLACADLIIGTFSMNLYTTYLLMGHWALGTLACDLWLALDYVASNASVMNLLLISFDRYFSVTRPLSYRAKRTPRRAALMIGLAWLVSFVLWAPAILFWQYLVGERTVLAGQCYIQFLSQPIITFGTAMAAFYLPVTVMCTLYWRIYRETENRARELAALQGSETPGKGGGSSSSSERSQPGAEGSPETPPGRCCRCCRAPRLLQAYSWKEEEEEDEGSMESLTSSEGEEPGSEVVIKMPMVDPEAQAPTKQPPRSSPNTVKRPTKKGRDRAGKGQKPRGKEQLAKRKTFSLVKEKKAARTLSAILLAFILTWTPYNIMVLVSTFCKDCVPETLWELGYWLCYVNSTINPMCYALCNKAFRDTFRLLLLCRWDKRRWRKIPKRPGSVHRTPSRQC

IC50 [1] | inhibition [2] | inhibition [3] | Compound
210 nM |  |  | O=C(O)C1=CCCN(CCC=C(c2ccccc2)c2ccccc2)C1
 | 14% | 12% | CCOC(=O)C1=CCC(COCc2ccc(-c3ccccc3)cc2)NC1 (stereo unspecified)
 | 59% | 57% | O=C(O)C1=CCC(COCc2ccc(-c3ccccc3)cc2)NC1 (stereo unspecified)
100 nM |  |  | O=C(O)C1=CCC(CCC(c2ccccc2)c2ccccc2)NC1 (stereo unspecified)

Source: ChEMBL document CHEMBL1128951, “6-(4-Phenyl-benzyloxy-methyl) guvacine. Synthesis, GABA uptake inhibitor and muscarinic properties” (Bioorg Med Chem Lett, 1996)
